From patent publication US20020137929A1, “1 - (3-heterocyclylphenyl) isothiourea, -isourea, -guanidine and -amidine herbicidal agents” (Intellectual Property Department, BASF Aktiengesellschaft, priority 1998, published 2002)

How the values were obtained:
ABUTH (Velvetleaf) [1] = test: Postemergence herbicidal evaluation; assay type: in vivo, Abutilon theophrasti; details: postemergence
Protocol: (§1) In the tests, seedling plants are grown in jiffy flats for about two weeks. The test compounds are dispersed in 50/50 acetone/water mixtures containing 0.5% TWEEN®20, a polyoxyethylene sorbitan monolaurate surfactant of Atlas Chemical Industries, in sufficient quantities to provide the equivalent of about 0.0156 kg to 0.500 kg per hectare of active compound when applied to the plants through a spray nozzle operating at 40 psi for a predetermined time. After spraying, the plants are placed on greenhouse benches and are cared for in accordance with conventional greenhouse procedures. From four to five weeks after treatment, the seedling plants are examined and rated according to the rating system set forth below. Where more than one test is involved for a given compound, the data are averaged.
(§2) Plant species employed in these evaluations are reported by header abbreviation, common name and scientific name.
(§3) Results of herbicide evaluation are expressed on a rating scale (0-9). The scale is based upon a visual observation of plant stand, vigor, malformation, size, chlorosis and overall plant appearance as compared with a control.

AMBEL (Ragweed, Common) = test: Postemergence herbicidal evaluation; assay type: in vivo, Ambrosia artemisifolia; details: postemergence
Protocol: as §1, §2, §3

ECHCG (Barnyardgrass) = test: Postemergence herbicidal evaluation; assay type: in vivo, Echinochloa crus-galli; details: postemergence
In short: (§4)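 Herbicidal effect was judged by eye on a 0–9 scale covering stand, vigor, deformity, size and chlorosis, compared with controls, four to five weeks after seedlings about two weeks old were sprayed (40 psi, ~0.0156–0.500 kg/ha).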

SETVI (Foxtail, Green) [2] = test: Postemergence herbicidal evaluation; assay type: in vivo, Setaria viridis; details: postemergence
In short: as §4

[3] = system: GLXMAW (Soybean, Williams); test: Postemergence herbicidal evaluation; assay type: in vivo, Glycine max, (L.) Merr. cv Williams; details: postemergence
Protocol: as §1, §2, §3

ORYSAT (Rice, Tebonnet) = test: Postemergence herbicidal evaluation; assay type: in vivo, Oryza sativa, (L.) Tebonnet; details: postemergence
Protocol: as §1, §2, §3

[4] = system: TRZAWR (Wheat, Winter, cv Riband); test: Postemergence herbicidal evaluation; assay type: in vivo, Triticum aestivum; details: postemergence
In short: as §4

ABUTH (Velvetleaf) [5] = test: Preemergence herbicidal evaluation; assay type: in vivo, Abutilon theophrasti; details: rated 4-5 weeks after treatment, rating scale 0-9
From the text: as §3
(§5) The preemergence herbicidal activity of the test compounds of the present invention is exemplified by the following tests in which the seeds of a variety of monocotyledonous and dicotyledonous plants are separately mixed with potting soil and planted on top of approximately one inch of soil in separate pint cups. After planting, the cups are sprayed with the selected aqueous acetone solution containing test compound in sufficient quantity to provide the equivalent of about 0.0156 to 0.500 kg per hectare of test compound per cup. The treated cups are then placed on greenhouse benches, watered and cared for in accordance with conventional greenhouse procedures. From four to five weeks after treatment, the tests are terminated and each cup is examined and rated according to the rating system provided in Example 37.
(§6) The compounds evaluated are reported by compound number given in Example 37.

CASOB (Sicklepod) = test: Preemergence herbicidal evaluation; assay type: in vivo, Cassia obtusifolia; details: rated 4-5 weeks after treatment, rating scale 0-9
From the text: as §3, §5, §6

SETVI (Foxtail, Green) [6] = test: Preemergence herbicidal evaluation; assay type: in vivo, Setaria viridis; details: rated 4-5 weeks after treatment, rating scale 0-9
From the text: as §3, §5, §6

MOOVA (Monochoria) = test: Preemergence weed control under flooded paddy conditions; assay type: in vivo, Monochoria vaginalis; details: rated 3-4 weeks after treatment
Protocol: as §3
Preemergence herbicidal activity under flooded paddy conditions is determined as follows: plant seeds or propagating organs are planted in the top 0.5 cm of silt loam soil in 32 oz. plastic containers with a diameter of 10.5 cm and no drainage holes. Water is added to these containers and maintained at 1.5 to 3 cm above the soil surface for the duration of the experiment. The test compounds are applied as aqueous/acetone mixtures 50/50 v/v pipetted directly into the flood water to give the equivalent of about 0.0313 to 0.500 kg/ha of active ingredient. The treated containers are placed on greenhouse benches and cared for in accordance with conventional greenhouse procedures. Three to four weeks after treatment, the test is terminated and each container is examined and herbicidal effect rated according to the rating system provided in Example 37. The compounds evaluated are reported by compound number given in Example 37.
Plant species employed in this example are reported by header abbreviation, common name and scientific name.

[7] = system: SAGPY (Arrowhead (Pygmaea)); test: as above; assay type: in vivo, Sagittaria pygmaea; details: rated 3-4 weeks after treatment
In short: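 Herbicidal effect is scored visually on a 0-9 scale against an untreated control, three to four weeks after compounds are pipetted into the flood water (1.5 to 3 cm deep) over seeds planted in silt loam at 0.5 cm depth. Rates: about 0.0313 to 0.500 kg/ha.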

## C=C1SC(=Nc2cc(-n3c(=O)cc(C(F)(F)F)n(C)c3=O)c(F)cc2Cl)N(CC(=O)OCC)C1=O [Compound 154]
ABUTH (Velvetleaf) [1]; rate 0.0156 kg/ha
  Herbicidal rating ABUTH: 9.0
ABUTH (Velvetleaf) [1]; rate 0.0313 kg/ha
  Herbicidal rating ABUTH: 9.0
ABUTH (Velvetleaf) [1]; rate 0.0625 kg/ha
  Herbicidal rating ABUTH: 9.0
AMBEL (Ragweed, Common); rate 0.0156 kg/ha
  Herbicidal rating AMBEL: 3.0
AMBEL (Ragweed, Common); rate 0.0313 kg/ha
  Herbicidal rating AMBEL: 9.0
AMBEL (Ragweed, Common); rate 0.0625 kg/ha
  Herbicidal rating AMBEL: 9.0
ECHCG (Barnyardgrass); rate 0.0156 kg/ha
  Herbicidal rating ECHCG: 0.0
ECHCG (Barnyardgrass); rate 0.0313 kg/ha
  Herbicidal rating ECHCG: 0.0
ECHCG (Barnyardgrass); rate 0.0625 kg/ha
  Herbicidal rating ECHCG: 0.0
SETVI (Foxtail, Green) [2]; rate 0.0156 kg/ha
  Herbicidal rating SETVI: 0.0
SETVI (Foxtail, Green) [2]; rate 0.0313 kg/ha
  Herbicidal rating SETVI: 0.0
SETVI (Foxtail, Green) [2]; rate 0.0625 kg/ha
  Herbicidal rating SETVI: 5.0
[3]; rate 0.0156 kg/ha
  Herbicidal rating GLXMAW: 5.5
[3]; rate 0.0313 kg/ha
  Herbicidal rating GLXMAW: 6.0
[3]; rate 0.0625 kg/ha
  Herbicidal rating GLXMAW: 7.5
ORYSAT (Rice, Tebonnet); rate 0.0156 kg/ha
  Herbicidal rating ORYSAT: 0.5
ORYSAT (Rice, Tebonnet); rate 0.0313 kg/ha
  Herbicidal rating ORYSAT: 1.5
ORYSAT (Rice, Tebonnet); rate 0.0625 kg/ha
  Herbicidal rating ORYSAT: 2.0
[4]; rate 0.0156 kg/ha
  Herbicidal rating TRZAWR: 3.5
[4]; rate 0.0313 kg/ha
  Herbicidal rating TRZAWR: 3.5
[4]; rate 0.0625 kg/ha
  Herbicidal rating TRZAWR: 4.0
ABUTH (Velvetleaf) [5]; rate 0.0156 kg/ha
  Preemergence herbicidal rating ABUTH: 9.0
ABUTH (Velvetleaf) [5]; rate 0.0313 kg/ha
  Preemergence herbicidal rating ABUTH: 9.0
ABUTH (Velvetleaf) [5]; rate 0.0625 kg/ha
  Preemergence herbicidal rating ABUTH: 9.0
ABUTH (Velvetleaf) [5]; rate 0.1250 kg/ha
  Preemergence herbicidal rating ABUTH: 9.0
ABUTH (Velvetleaf) [5]; rate 0.2500 kg/ha
  Preemergence herbicidal rating ABUTH: 9.0
CASOB (Sicklepod); rate 0.0156 kg/ha
  Preemergence herbicidal rating CASOB: 0.0
CASOB (Sicklepod); rate 0.0313 kg/ha
  Preemergence herbicidal rating CASOB: 0.0
CASOB (Sicklepod); rate 0.0625 kg/ha
  Preemergence herbicidal rating CASOB: 9.0
CASOB (Sicklepod); rate 0.1250 kg/ha
  Preemergence herbicidal rating CASOB: 9.0
CASOB (Sicklepod); rate 0.2500 kg/ha
  Preemergence herbicidal rating CASOB: 9.0
SETVI (Foxtail, Green) [6]; rate 0.0156 kg/ha
  Preemergence herbicidal rating SETVI: 2.0
SETVI (Foxtail, Green) [6]; rate 0.0313 kg/ha
  Preemergence herbicidal rating SETVI: 7.0
SETVI (Foxtail, Green) [6]; rate 0.0625 kg/ha
  Preemergence herbicidal rating SETVI: 9.0
SETVI (Foxtail, Green) [6]; rate 0.1250 kg/ha
  Preemergence herbicidal rating SETVI: 9.0
SETVI (Foxtail, Green) [6]; rate 0.2500 kg/ha
  Preemergence herbicidal rating SETVI: 9.0
MOOVA (Monochoria); 0.0313 kg/ha
  herbicidal effect rating, MOOVA: 6.0
MOOVA (Monochoria); 0.0625 kg/ha
  herbicidal effect rating, MOOVA: 7.0
MOOVA (Monochoria); 0.1250 kg/ha
  herbicidal effect rating, MOOVA: 8.0
MOOVA (Monochoria); 0.2500 kg/ha
  herbicidal effect rating, MOOVA: 9.0
[7]; 0.0313 kg/ha
  herbicidal effect rating, SAGPY: 2.0
[7]; 0.0625 kg/ha
  herbicidal effect rating, SAGPY: 4.0
[7]; 0.1250 kg/ha
  herbicidal effect rating, SAGPY: 5.0
[7]; 0.2500 kg/ha
  herbicidal effect rating, SAGPY: 6.0
